Measured values: patent US11040954B1, “CXCR3 receptor agonists” (RECEPTOS LLC, priority 2016, dated 2021)

Molecular target: T1, CXCR3 (Homo sapiens, UniProt P49682)
T1 construct: host or cells: CHO-K1 (cAMP Hunter CHOK1 CXCR3 Gi cell line)
T1 sequence (P49682 1-368): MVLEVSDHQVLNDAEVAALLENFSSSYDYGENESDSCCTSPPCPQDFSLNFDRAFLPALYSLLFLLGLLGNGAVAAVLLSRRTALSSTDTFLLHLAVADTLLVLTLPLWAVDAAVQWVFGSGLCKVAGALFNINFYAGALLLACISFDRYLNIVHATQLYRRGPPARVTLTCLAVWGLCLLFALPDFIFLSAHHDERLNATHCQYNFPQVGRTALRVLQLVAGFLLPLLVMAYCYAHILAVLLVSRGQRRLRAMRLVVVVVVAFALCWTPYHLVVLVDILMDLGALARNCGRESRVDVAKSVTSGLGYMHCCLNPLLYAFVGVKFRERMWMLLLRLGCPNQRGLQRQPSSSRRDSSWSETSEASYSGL
Assay: CXCR3 cAMP agonist assay (cAMP Hunter CHOK1 CXCR3 Gi cell line, forskolin-stimulated, HitHunter cAMP detection)
Format: cell-based
Conditions: cAMP Hunter CHOK1 CXCR3 Gi cells, 20 μM forskolin, 30 minutes; read-out: Activity (CXCR3 cAMP agonist assay compound EC50)
Summary of the method: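 Agonist activity was measured as suppression of forskolin (20 μM)-induced cAMP, read by luminescent enzyme-fragment complementation with a cAMP standard curve and CXCL11 defining full efficacy. Assay used 50,000 CXCR3 Gi CHOK1 cells/well in pH 7.4 HEPES-buffered HBSS with 0.1% BSA, compound 0-10 μM over 12 points, 30 min incubation.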

EC50 | SMILES
50 to 250 nM | Cc1c(Cl)ccc(NC(=O)C2(NC(=O)[C@@H]3Cc4ccccc4CN3C(=O)CCC(=O)c3ccccc3)CCNCC2)c1C [Compound 11-4]
< 50 nM | Cc1cc(NC(=O)[C@H](CCN)NC(=O)[C@@H]2Cc3ccccc3CN2C(=O)CCC(=O)N2CCCC3(CCC3)C2)ccc1Cl [Compound 12-78]
> 500 nM | CN(C)CCN(C)C(=O)CCC(=O)N1Cc2ccccc2C[C@H]1C(=O)N[C@@H](CCN)C(=O)Nc1ccc(Cl)c(Cl)c1F [Compound 15-28]
250 to 500 nM | Cc1ccc(NC(=O)[C@H](CCN)NC(=O)[C@@H]2Cc3ccccc3CN2C(=O)CCC(=O)c2ccccc2)c(C(F)(F)F)c1 [Compound 14-13]
250 to 500 nM | CCc1ccc(NC(=O)[C@H](CCN)NC(=O)[C@@H]2Cc3ccccc3CN2C(=O)CCC(=O)c2ccccc2)c(F)c1 [Compound 2-56]
< 50 nM | CO[C@@H]1CCCN(C(=O)CCC(=O)N2Cc3ccccc3C[C@H]2C(=O)N[C@@H](CCN)C(=O)Nc2ccc(Cl)c(Cl)c2F)C1 [Compound 15-27]
< 50 nM | Cc1cc(NC(=O)C(NC(=O)[C@@H]2Cc3ccccc3CN2C(=O)CCC(=O)c2ccccc2)C2CC[N+](C)(C)CC2)ccc1Cl (mixture of isomers) [Compound 6-6]
< 50 nM | Cc1ccc(NC(=O)[C@H](CCCCN)NC(=O)[C@@H]2Cc3ccccc3CN2C(=O)CCC(=O)c2ccccc2)cc1Cl [Compound 1-27]
< 50 nM | CN1CCN(C(=O)CCC(=O)N2Cc3ccccc3C[C@H]2C(=O)N[C@@H](CCN)C(=O)Nc2ccc(Cl)c(Cl)c2F)CC1 [Compound 10-4]
< 50 nM | Cc1c(Cl)ccc(NC(=O)[C@H](CCN)NC(=O)[C@@H]2Cc3ccccc3CN2C(=O)CCC(=O)N2CCCC3(CCC3)C2)c1Cl [Compound 15-51]
< 50 nM | NCC[C@H](NC(=O)[C@@H]1Cc2ccccc2CN1C(=O)CCC(=O)N1CCCCC1C1CCC1)C(=O)Nc1ccc(Cl)c(Cl)c1F (stereo partly drawn) [Compound 15-22]
50 to 250 nM | CC1(C)COCCN1C(=O)CCC(=O)N1Cc2ccccc2C[C@H]1C(=O)NC1(C(=O)Nc2ccc(Cl)c(Cl)c2F)CCNCC1 [Compound 12-127]
< 50 nM | Cc1cc(NC(=O)[C@H](CCN)NC(=O)[C@@H]2Cc3ccccc3CN2C(=O)CCC(=O)N2CCCC(O)C2)ccc1Cl (stereo partly drawn) [Compound 12-62]
< 50 nM | O=C(CCC(=O)N1Cc2ccccc2CC1C(=O)NC(CCN1CCC(F)CC1)C(=O)Nc1ccc(Cl)c(Cl)c1F)c1ccccc1 (racemic) [Compound 23-3]
< 50 nM | Cc1cc(NC(=O)[C@H](CCN)NC(=O)[C@@H]2Cc3ccccc3CN2C(=O)CCC(=O)N2C[C@H](C)C[C@H](C)C2)ccc1Cl [Compound 12-39]
50 to 250 nM | Cc1ccc(NC(=O)[C@H](CCCCN)NC(=O)[C@@H]2Cc3ccccc3CN2C(=O)CCC(=O)c2ccccc2)cc1 [Compound 1-3]
250 to 500 nM | CC(C)(C)C1CCCCN1C(=O)CCC(=O)N1Cc2ccccc2C[C@H]1C(=O)N[C@@H](CCN)C(=O)Nc1ccc(Cl)c(Cl)c1F (stereo partly drawn) [Compound 15-32]
50 to 250 nM | CCc1c(C)cccc1NC(=O)[C@H](CCN)NC(=O)[C@@H]1Cc2ccccc2CN1C(=O)CCC(=O)c1ccccc1 [Compound 2-53]
< 50 nM | CC1(C)CCCCN1C(=O)CCC(=O)N1Cc2ccccc2C[C@H]1C(=O)NC1(C(=O)Nc2ccc(Cl)c(Cl)c2F)CCNCC1 [Compound 12-135]
< 50 nM | Cc1cc(NC(=O)[C@H](CCN)NC(=O)[C@@H]2Cc3ccccc3CN2C(=O)CCC(=O)N2CCC[C@@H]2CF)ccc1Cl [Compound 12-144]
< 50 nM | NCC[C@H](NC(=O)[C@@H]1Cc2ccccc2CN1C(=O)CCC(=O)N1CCC[C@H]1c1ccccc1)C(=O)Nc1ccc(Cl)c(Cl)c1F [Compound 12-149]
50 to 250 nM | Cc1cc(NC(=O)[C@H](CCN)NC(=O)[C@@H]2Cc3ccccc3CN2C(=O)CCC(=O)N2CCN(S(C)(=O)=O)CC2)ccc1Cl [Compound 12-15]
< 50 nM | CC[C@@H]1CCCCN1C(=O)CCC(=O)N1Cc2ccccc2C[C@H]1C(=O)N[C@@H](CCN)C(=O)Nc1ccc(Cl)c(C)c1 [Compound 12-112]
50 to 250 nM | CCc1cccc(NC(=O)[C@H](CCN)NC(=O)[C@@H]2Cc3ccccc3CN2C(=O)CCC(=O)c2ccccc2)c1OC [Compound 13-5]

EC50 | SMILES
50 to 250 nM | CCN(CC)C(=O)CCC(=O)N1Cc2ccccc2C[C@H]1C(=O)N[C@@H](CCN)C(=O)Nc1ccc(Cl)c(C)c1 [Compound 12-14]
50 to 250 nM | Cc1cc(NC(=O)[C@H](CCN2CCC(O)CC2)NC(=O)[C@@H]2Cc3ccccc3CN2C(=O)CCC(=O)c2ccccc2)c(F)cc1Cl (racemic) [Compound 25-2]
250 to 500 nM | Cc1cc(NC(=O)[C@H](CCN)NC(=O)[C@@H]2Cc3ccccc3CN2C(=O)CCC(=O)N2CC3(CCOCC3)C2)ccc1Cl [Compound 12-24]
50 to 250 nM | CS(=O)(=O)NCC[C@H](NC(=O)[C@@H]1Cc2ccccc2CN1C(=O)CCC(=O)N1CCCCC1)C(=O)Nc1ccc(Cl)c(Cl)c1F [Compound 32-1, (S)—N—((S)-1-((3,4-dichloro-2-fluorophenyl)amino)-4-(methylsulfonamido)-1-oxobutan-2-yl)-2-(4-oxo-4-(piperidin-1-yl)butanoyl)-1,2,3,4-tetrahydroisoquinoline-3-carboxamide]
< 50 nM | COc1cc(Cl)c(C)cc1NC(=O)[C@H](CCN)NC(=O)[C@@H]1Cc2ccccc2CN1C(=O)CCC(=O)c1ccccc1 [Compound 2-25]
50 to 250 nM | NCC[C@H](NC(=O)[C@@H]1Cc2ccccc2CN1C(=O)CCC(=O)c1ccccc1)C(=O)Nc1cc(Cl)ccc1C(F)(F)F [Compound 14-14]
< 50 nM | Cc1cc(NC(=O)[C@H](CCN)NC(=O)[C@@H]2Cc3ccccc3CN2C(=O)CCC(=O)N2CCN(C)c3ccccc32)ccc1Cl [Compound 12-140]
< 50 nM | NCC[C@H](NC(=O)[C@@H]1Cc2ccccc2CN1C(=O)CCC(=O)c1ccccc1)C(=O)NC1Cc2ccccc2C1 [Compound 2-66]
> 500 nM | Cc1cc(NC(=O)[C@H](CCN)NC(=O)[C@@H]2Cc3ccccc3CN2C(=O)CCC(=O)N2CCNCC2)ccc1Cl [Compound 12-115]
50 to 250 nM | NCC[C@H](NC(=O)[C@@H]1Cc2ccccc2CN1C(=O)CCC(=O)c1ccccc1)C(=O)Nc1ccc(Cl)cc1C(F)(F)F [Compound 14-12]
50 to 250 nM | Cc1ccc(NC(=O)[C@H](CCN)NC(=O)[C@@H]2Cc3ccccc3CN2C(=O)CCC(=O)c2ccccc2)c(F)c1 [Compound 2-31]
< 50 nM | NCCCC[C@H](NC(=O)[C@@H]1Cc2ccccc2CN1C(=O)CCC(=O)c1ccccc1)C(=O)Nc1ccc(Cl)c(C(F)(F)F)c1 [Compound 1-18]
< 50 nM | Cc1cc(NC(=O)[C@H](CCN)NC(=O)[C@@H]2Cc3ccccc3CN2C(=O)CCC(=O)N2CCCC2c2ccccc2)ccc1Cl (stereo partly drawn) [Compound 12-53]
250 to 500 nM | NCC[C@H](NC(=O)[C@@H]1Cc2ccccc2CN1C(=O)CCC(=O)c1ccccc1)C(=O)Nc1ccc(Cl)c(F)c1 [Compound 2-12]
< 50 nM | NCC[C@H](NC(=O)[C@@H]1Cc2ccccc2CN1C(=O)CCC(=O)N1CCCC(CF)C1)C(=O)Nc1ccc(Cl)c(Cl)c1F (stereo partly drawn) [Compound 15-25]
< 50 nM | Cc1cc(NC(=O)[C@H](CCN)NC(=O)[C@@H]2Cc3ccccc3CN2C(=O)CCC(=O)N2CCC(F)CC2)ccc1Cl [Compound 12-67]
< 50 nM | NCC[C@H](NC(=O)[C@@H]1Cc2ccccc2CN1C(=O)CCC(=O)c1ccccc1)C(=O)Nc1cccc2c1CCC2 [Compound 2-67]
50 to 250 nM | Cc1cccc(NC(=O)C2(NC(=O)[C@@H]3Cc4ccccc4CN3C(=O)CCC(=O)c3ccccc3)CCNCC2)c1F [Compound 13-3]
< 50 nM | O=C(CCC(=O)N1Cc2ccccc2C[C@H]1C(=O)N[C@@H](CCN1CCC(O)CC1)C(=O)Nc1ccc2c(c1)CCC2)c1ccccc1 [Compound 28-1, (S)—N—((S)-1-((2,3-dihydro-1H-inden-5-yl)amino)-4-(4-hydroxypiperidin-1-yl)-1-oxobutan-2-yl)-2-(4-oxo-4-phenylbutanoyl)-1,2,3,4-tetrahydroisoquinoline-3-carboxamide]
50 to 250 nM | Cc1cc(NC(=O)[C@H](CC(N)=O)NC(=O)[C@@H]2Cc3ccccc3CN2C(=O)CCC(=O)c2ccccc2)ccc1Cl [Compound 3-12]
< 50 nM | Cc1cc(NC(=O)[C@H](CCN)NC(=O)[C@@H]2Cc3ccccc3CN2C(=O)CCC(=O)N2CCCCC2)ccc1Cl [Compound 10-1, (S)—N—((S)-4-amino-1-((4-chloro-3-methylphenyl)amino)-1-oxobutan-2-yl)-2-(4-oxo-4-(piperidin-1-yl)butanoyl)-1,2,3,4-tetrahydroisoquinoline-3-carboxamide]
< 50 nM | NCC[C@H](NC(=O)[C@@H]1Cc2ccccc2CN1C(=O)CCC(=O)N1CC2CCCCC2C1)C(=O)Nc1ccc(Cl)c(Cl)c1F (stereo partly drawn) [Compound 15-54]
< 50 nM | Cc1cc(NC(=O)[C@H](CCCCN)NC(=O)[C@@H]2Cc3ccccc3CN2C(=O)CCC(=O)c2cccc(C(F)(F)F)c2)ccc1Cl [Compound 7-8]
50 to 250 nM | COc1c(NC(=O)[C@H](CCN)NC(=O)[C@@H]2Cc3ccccc3CN2C(=O)CCC(=O)c2ccccc2)ccc2c1CCCC2 [Compound 2-62]
